This is an account of results in publication PMC4372538, “Advantages of the Phosphatidylserine-Recognizing Peptide PSP1 for Molecular Imaging of Tumor Apoptosis Compared with Annexin V” (PLoS ONE, 2015).

Test [1] relates to necrotic and nonapoptotic cells with exposed anionic lipids. The conditions noted are these: under specific physiological or pathological conditions, ref [12], cited from earlier work. The source says:
(§1) The exposure of phosphatidylserine (PS) on the outer surface of the plasma membrane bilayer, an early biochemical event in apoptosis, is an attractive target for molecular imaging of dying cells. During chemo- and radiotherapy, subsequent necrosis also results in PS exposure due to disruption of the plasma membrane’s integrity. […] The stability and biodistribution of annexin V derivatives depend ...

For test [2] the following is noted: calcium-dependent; ref [9],[10]; cited from earlier work.
Text: as §1

Test [3] deals with apoptotic H460 cells. The experiment in a line: FACS binding to apoptotic H460 cells. The class given is cell-based, human. Conditions: FITC-labeled, etoposide 50 μM 22 hrs, 2, 10, 20, 50 μg/ml, binding buffer 10 mM Hepes pH 7.4, 150 mM NaCl ± 2 mM CaCl2, 4°C, 1 hr. Here is the method: The human lung cancer cell H460, which was obtained from the American Type Culture Collection (ATCC), was maintained in RPMI-1640 media supplemented with 10% heat-inactivated fetal bovine serum (FBS) and penicillin G/streptomycin at 37°C in a humidified atmosphere of 95% air and 5% CO2.
To induce apoptosis of lung tumor cells (H460), the cells (5×10^6 cell) were grown overnight and then treated with etoposide (50 μM) (Sigma) in serum-free media for 22 hrs, followed by washing with phosphate-buffered saline (PBS) and binding buffer (10 mM Hepes (pH 7.4), 150 mM NaCl, and 2 mM CaCl2).
Control peptide (grey); FITC-NSSSVDK.
On the technique in general: In flow cytometry, cells or beads pass a laser one at a time.

In a further test the target is PS liposomes. Briefly: SPR binding to PS liposomes. The source says:
To compare the kinetics of annexin V and PSP1 peptide binding to PS liposomes, SPR spectroscopy was employed (Reichert Inc, NY, USA). PC and PS liposomes (0.8:0.2 PC:PS) were generated as previously described and were homogenously purified using a liposome mini-extruder with a 100 nm membrane filter, based on the manufacturer’s protocol (Avanti Polar Lipids). […] Briefly, phytosphingosine was immobilized by activating the carboxymethyl groups on dextran-coated chips (Reichert Life Sciences) through a reaction with N-hydroxysuccinimide (Sigma-Aldrich), followed by covalent bonding of the ligands to the chip surface via amide linkages and blocking of excess activated carboxyls with ethanolamine. The purified PS or PC liposomes were captured on the phytosphingosine layer at a flow rate of 5 μl/min in liposome immobilization buffer (10 mM Tris-HCl (pH 8.0), 100 mM NaCl, and 2 mM CaCl2). To use the PC-immobilized surface as a control, the injected PS or PC liposome volume was adjusted to an immobilization level of approximately 4000±200 RU. Different concentrations of the PSP1 peptide (0.313 to 5 μM) and annexin V (3.13 to 100 nM) in running buffer (10 mM Tris-HCl (pH 8.0), 100 mM NaCl, 2 mM CaCl2, and 62.5 μg/ml BSA) were allowed to flow over the surfaces bound to the immobilized liposomes for 3 min at a rate of 30 μl/min. The sensor surface was regenerated after each association and dissociation cycle by injecting 10 mM EDTA for 20 s, followed by 50 mM NaOH for 10 s. The interaction of the ligand and the analyte was analyzed using Scrubber 2 Biologic software (http://www.biologic.com.au/). The binding kinetics was assessed by determining the association (kon), dissociation (koff), and equilibrium (KD) constants.
The in vitro binding affinity of PSP1 and annexin V for PS was further examined using SPR analysis (Fig. 2). […] We immobilized PS liposomes on the surface of an SPR chip, applied a series of different concentrations of PSP1 or annexin V, and examined the binding kinetics. PS-specific binding was determined by subtracting binding responses to a PC liposome-coated surface from those obtained using a PS liposome-coated […] surface.
Fig 2 In vitro SPR analysis of PSP1 and annexin V binding to PS liposomes. (A) The indicated concentrations of PSP1 were injected onto the liposome-immobilized surface. Responses (RU) from the PC liposome-coated surface (reference) were subtracted from those from the PS:PC (2:8) liposome surface to monitor PS-specific binding. The equilibration binding constant (KD) and the association (Kon) and dissociation (Koff) rate constants were estimated using the Scrubber program. (B) Plots of the RU values of annexin V at the indicated concentrations.

For test [4], the system named is apoptotic tumor cells in H460 tumor-bearing mice. The experiment in a line: in vivo fluorescence imaging of tumors after apoptosis induction. Further details: species or system BALB/c nude mice; human H460 tumor. The conditions noted are these: Cy7.5-labeled. On the procedure: Female nude mice (BALB/c nude; body weight, 20±3 g; n = 5) were housed in a specific pathogen-free environment at 22±2°C and 55±5% relative humidity with light. Tumors were generated by subcutaneously injecting H460 cells (5×10^6 cells) into the right shoulder of 6-wk-old female BALB/c nude mice and allowing them to grow for 3 weeks (size of 0.5 to 0.7 cm). For in vivo analysis of tumor targeting, the tumor-bearing mice were either treated or not treated with a single dose of camptothecin (10 mg/kg) 24 hrs prior to intravenous injection of Cy7.5-labeled PSP1, Cy7.5-annexin V or Cy7.5-labeled control peptide into the tail vein under inhalational anesthesia (1% (w/v) isoflurane in 2 L oxygen).
In vivo fluorescence images were taken at different time intervals after peptide injection (10 min, 1 h, 3 h, 6 h, and 12 h) using an eXplore Optix system (ART Advanced Research Technologies Inc., Montreal, Canada), which has excitation/emission wavelengths of 778 nm/805 nm. The obtained images were processed using eXplore Optix OptiView Software and normalized based on the baseline fluorescence, assessed for each mouse prior to peptide injection.
Fig 4 In vivo imaging of tumors after apoptosis induction. (A) Cy7.5-labelled PSP1peptide, control peptide, or annexin V was systematically injected into the tail vein of tumor-bearing nude mice treated with camptothecin 24 hrs before injection. The same amount of annexin V was also injected into non-camptothecin-treated tumor-bearing mice as a control. The homing of the peptides was examined after the indicated times using an optical imaging system. The white dotted circles indicate the tumors. (B) Histological examination of tumor tissues after homing of PSP1 and annexin V, performed under a fluorescence microscope. Tumor cell apoptosis was observed by TUNEL staining.

In test [5] the test system is apoptotic H460 cells. The experiment in a line: confocal microscopy of binding to apoptotic H460 cells. Format: cell-based, human.
The mark [6] stands for this setting: PS:PC (2:8) liposomes, PC response subtracted, Tris-HCl pH 8.0, 2 mM CaCl2, Scrubber, value from picture.

pKd: −log10 of the molar value. “Also recorded” adds a separate entry of the source. Like-named read-outs stand apart in the source and are kept apart here.

Consider “annexin V: endogenous 36-kDa human protein that binds to PS with nanomolar affinity; His-tagged, expressed in Escherichia coli BL-21”, for which the “specificity of annexin V for apoptotic cells” value is given as “not entirely specific for apoptotic cells” in test [1] and “targets necrotic as well as nonapoptotic cells with exposed anionic lipids” in test [1] (listed as Annexin V). In addition, in test [2], the “PS binding affinity of annexin V” value was “binds to PS with nanomolar affinity in a calcium-dependent manner”. Also, the “binding to apoptotic H460 cells (FACS)” value with apoptotic H460 cells [3] is “specifically bound to apoptotic H460 cells in a concentration-dependent manner”; in the test with apoptotic H460 cells [3] (listed as Annexin V), “appeared to exhibit a greater ability to bind to apoptotic cells”. In addition, the pKd at PS liposomes (PS liposomes, PC liposome response subtracted, Tris-HCl pH 8.0, 2 mM CaCl2, read-out: in vitro binding affinity (equilibrium binding constant)) was 8.51. For the same substance, the equilibration binding constant (KD) on PS liposomes (PS:PC (2:8) liposomes on phytosphingosine/CMDH chip, PC liposome response subtracted, 10 mM Tris-HCl pH 8.0, 100 mM NaCl, 2 mM CaCl2, 62.5 μg/ml BSA, PSP1 0.313 to 5 μM, annexin V 3.13 to 100 nM, 3 min, 30 μl/min, Scrubber 2, values from picture) came out at 3.15 nM. Moreover, the “association rate constant (Kon)” value with PS liposomes (setting [6]) is recorded as 1.05±0.76×10^6 M^-1S^-1. Moreover, in the test on PS liposomes (setting [6]), the “dissociation rate constant (Koff)” value was 1.75±1.28×10^-3 S^-1. The “duration of in vivo fluorescence signal in tumor region” value in test [4] (i.v. tail vein, camptothecin 10 mg/kg 24 hrs before, PSP1 10 μg/200 μl (23.16 μM), annexin V 100 μg/200 μl (14.3 μM)) is “more than 12 hrs”. Besides, the “in vivo tumor homing, non-camptothecin-treated” value in test [4] (i.v., 100 μg/200 μl, non-camptothecin-treated tumor-bearing mice) is “did not home to the tumor region”. In addition, the “in vivo tumor homing” value in test [4] (i.v., camptothecin-treated H460 tumor-bearing mice, n = 5, imaging 10 min to 12 h, PSP1 10 μg/200 μl, annexin V and control peptide 100 μg/200 μl) is “weak signals; also recorded: rapidly observed in the tumor region”. Moreover, in the test with apoptotic H460 cells [5] (FITC-labeled, 20 μg/ml, apoptotic H460 (etoposide 50 μM), 4°C, 1 hr), the “apoptotic cell-specific signal (confocal microscopy)” value was “significantly weaker at the same concentration”. Moreover, the “predicted sensitivity of annexin V over PSP1” value in the test with apoptotic H460 cells [5] (same concentration, predicted from KD ratio, molar concentration 1/16th and 0.7 FITC groups/molecule, not observed) was 150 fold.
